Data reported in US20240382529A1, “COMPOSITIONS AND METHODS FOR TREATING SPINAL CORD INJURIES” (ASTERIAS BIOTHERAPEUTICS, INC., priority 2022, published 2024).

B1: Decorin: extracellular small leucine-rich proteoglycan, TGF-β1/2 antagonist; recombinant form used in rat SCI models (protein, UniProt P07585 31-359, looked up)
Decorin: DEASGIGPEVPDDRDFEPSLGPVCPFRCQCHLRVVQCSDLGLDKVPKDLPPDTTLLDLQNNKITEIKDGDFKNLKNLHALILVNNKISKVSPGAFTPLVKLERLYLSKNQLKELPEKMPKTLQELRAHENEITKVRKVTFNGLNQMIVIELGTNPLKSSGIENGAFQGMKKLSYIRIADTNITSIPQGLPPSLTELHLDGNKISRVDAASLKGLNNLAKLGLSFNSISAVDNGSLANTPHLRELHLDNNKLTRVPGGLAEHKYIQVVYLHNNNISVVGSSDFCPPGHNTKKASYSGVSLFSNPVQYWEIQPSTFRCVYVRSAIQLGNYK

Tests used:
[1] = tested on: subacute cervical spinal cord injuries (SCI); assay: Phase 1/2a cervical SCI trial: safety, adverse events; format: in vivo, human
Experimental: Study Design. The trial design was an open-label, staggered dose escalation, cross-sequential, multicenter study. Three sequential, escalating doses of AST-OPC1 were administered at a single time point between 21 and 42 days post-injury to subjects with subacute cervical spinal cord injuries (SCI). Subjects received AST-OPC1 via direct intra-spinal injection using a Syringe Positioning Device (SPD). To prevent rejection of engraftment, low dose tacrolimus was initiated 6 to 12 hours after and intra-spinal injection, and continued for 46 days, tapered from Day 46 to Day 60, and was discontinued at Day 60. Subjects were followed for 1 year following administration of AST-OPC1 under this protocol. Male or female subjects from 18 to 69 years of age at time of consent with sensorimotor complete, traumatic SCI (American Spinal Injury Association Impairment Scale A) or sensorimotor incomplete, traumatic SCI (American Spinal Injury Association Impairment Scale B). […] There was a single spinal cord lesion on a post-stabilization magnetic resonance imaging (MRI) scan, with sufficient visualization of the spinal cord injury epicenter and lesion margins to enable post-injection safety monitoring. Subjects were able to participate in an elective surgical procedure to inject AST-OPC1 21 to 42 days following SCI. Subjects received a single dose of either 2×10^6, 1×10^7, or 2×10^7 AST-OPC1 viable cells by injection, administered 21 to 42 days following SCI. The product was delivered intraoperatively into the spinal cord using the Syringe Positioning Device. The AST-OPC1 batch numbers used in this study were M08D1A, M22D1A and M25D1A. Single administration of AST-OPC1 was provided with 1 year of follow-up. Schematics of the planned study timeline, and subject screening and treatment, are provided in FIG. 6 and FIG. 7, respectively. A schematic diagram of the final open-label, staggered dose-escalation, multicenter Phase 1/2a clinical trial is shown in FIG. 8. An overview of study visits for the one-year protocol is presented in the study schema in FIG. 9.
A neurological examination was completed using the standardized International Standards for Neurological Classification of Spinal Cord Injury (ISNCSCI) examination for motor and sensory testing and for designation of the American Spinal Injury Association impairment scale. The ISNCSCI is used for efficacy with respect to improved motor function in the extremities, improved sensory function, and/or a descending neurological level. Safety assessments included physical examination, vital signs, ISNCSCI neurological examination, pain questionnaire (International Spinal Cord Injury Pain Basic Data Set, ISCIPBDS), electrocardiogram (ECG), Magnetic Resonance Imaging (MRI), laboratory tests, concomitant medications, and adverse events (AEs). Results for the ISNCSCI were listed for each subject by scheduled visit and analyzed by change in motor level and motor scores as well as other exploratory assessments of arm/hand function, self-care ability and overall volitional performance. Adverse events were tabulated by system organ class and by preferred term within system organ class according to the Medical Dictionary for Regulatory Activities (MedDRAR) Version 18.0. S[…] of the safety data was performed using descriptive statistical methods including AEs incidence, severity and relatedness to AST-OPC1, to the injection procedure for product administration, and concomitant immunosuppression with tacrolimus. The number of laboratory assessments (hematology, clinical chemistry) that were below, within, or above the normal laboratory reference range were summarized for each analyte at scheduled study visits. Vital signs were summarized by calculating the mean, standard deviation, median, and range of values at each of the protocol-specified time points.
Study Endpoints. […]

[2] = tested on: T3 to T11 neurologically complete spinal cord injuries (SCI); assay: Phase 1 thoracic SCI trial of LCTOPC1 (NCT01217008): safety, adverse events; format: in vivo, human; settings: 60 days immunosuppression
Experimental: Study design. The trial design was an open-label, multicenter study. A single dose of 2×10^6 LCTOPC1 was injected within 7 to 14 days following SCI. Subjects who received LCTOPC1 also received tacrolimus to prevent rejection. Subjects will be followed by protocol for 15 years following administration of LCTOPC1. This study was a Phase 1, multi-center, non-randomized, a single group assignment interventional clinical trial. The Participants were enrolled from one of seven centers in the United Sates. The study was registered (NCT01217008) and the primary endpoint was safety, as measured by the frequency and severity of adverse events related to LCTOPC1, the injection procedure used to administer LCTOPC1, and/or the concomitant immunosuppression administered. The secondary endpoint was neurological function as measured by sensory scores and lower extremity motor scores on […] examinations. […] The primary endpoint was safety measured by the frequency and severity of adverse events related to the OPC1 injection, the injection procedure, and/or the concomitant immunosuppression administered. The secondary endpoint was neurological function as measured by sensory scores and lower extremity motor scores as measured by the […] examinations. […] The severity of AEs and the characterization of Serious Adverse Events (SAEs) were evaluated using standard FDA criteria. […]

[3] = tested on: dorsal funicular lesion (DFL) SCI model; settings: cited from earlier work

| Molecule | AEs related to Tacrolimus that were hypomagnesemia ([1]; both, human, in vivo, 60 days) | Decreased Appetite: Severity ([1]; both, human, in vivo, 60 days) | Hypomagnesemia: Days from Injection ([1]; both, human, in vivo, 60 days) | Hypomagnesemia: Severity ([1]; both, human, in vivo, 60 days) | Nausea: Days from Injection ([1]; both, human, in vivo, 60 days) | Nausea: Severity ([1]; both, human, in vivo, 60 days) | Bacterial infection: Days from Injection ([1]; causality Tacrolimus) | Bacterial infection: Outcome ([1]; causality Tacrolimus) | Bacterial infection: Severity ([1]; causality Tacrolimus) | Decreased Appetite: Outcome ([1]; in vivo) | Hypomagnesemia: Outcome ([1]; in vivo) | Nausea: Outcome ([1]; in vivo) | tolerability of immunosuppression ([1]; in vivo) | Grade 1 AEs possibly related specifically to tacrolimus [2] | Grade 2 AEs possibly related specifically to tacrolimus [2] | effect on scarring and wound cavitation ([3]; DFL SCI model, adult rats) | axonal regrowth ([3]; Decorin-treated vs PBS-treated DFL) | inflammation, glial scar formation, CSPG expression ([3]; after acute spinal cord injury) |
| --- | --- | --- | --- | --- | --- | --- | --- | --- | --- | --- | --- | --- | --- | --- | --- | --- | --- | --- |
| C=CC[C@@H]1/C=C(\C)C[C@H](C)C[C@H](OC)[C@H]2O[C@@](O)(C(=O)C(=O)N3CCCC[C@H]3C(=O)O[C@H](/C(C)=C/[C@@H]3CC[C@@H](O)[C@H](OC)C3)[C@H](C)[C@@H](O)CC1=O)[C@H](C)C[C@@H]2OC [Tacrolimus, tacrolimus] | 8/11 | Grade 2 | 5 to 43 days | 1-2 Grade | 7 days | Grade 2 | 30 days | Resolved | Grade 3 | Resolved | Resolved | Resolved | well-tolerated | Seven Grade 1 AEs | nine Grade 2 AEs | – | – | – |
| B1 | – | – | – | – | – | – | – | – | – | – | – | – | – | – | – | suppressed acute scarring (fibrogenesis) and wound cavitation | promoted axonal regrowth in both acute and chronic experiments | inhibit inflammation, glial scar formation and CSPG expression |
